The text below walks through data of patent publication US8309685B2 (Celgene Avilomics Research, Inc., priority 2007, dated 2012).

One may read the IC90 as the concentration needed for an effect of 90%. By EC50 is commonly meant the midpoint of the concentration-response curve. Higher therefore signals weaker potency.

Read-outs that look alike come from different tables or passages of the source.

The subject of test [1] is HCV RNA replicon in cell line ET (luc-ubi-neo/ET), human Huh7 hepatoma. Nature of the test: Method A: HCV RNA replicon antiviral assay (luciferase, ET cell line). Type of test: cell-based, Hepatitis C virus. The following applies: Hepatitis C virus, Huh-7, assay described in Example 22. An outline of the steps:
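Six 3-fold dilutions of each drug were tested on subconfluent luc-ubi-neo/ET Huh7 replicon cells (5×10^3/well) for 72 hr at 37 °C. EC50 and EC90 came from luciferase read-out, IC50 from CytoTox-1 cell number, and […]; interferon alpha-2b was run each time as control.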
(Replicon systems follow genome replication, usually without infectious particles.)

In test [2] the target is T1, wild type HCV NS3/4A 1b protease enzyme (Hepatitis C virus genotype 1b, UniProt P26663).
T1 construct: 10× stocks of NS3/4A protease enzyme from Bioenza (Mountain View, Calif.); purchased Bioenza (Mountain View, Calif.)
Nature of the test: HCV Protease FRET Assay (IC50_APP), wild type. Type of test: biochemical.

The target of test [3] is T2, A156T mutant of the HCV NS3/4A 1b protease enzyme (Hepatitis C virus genotype 1b, UniProt P26663, A1182T).
T2 construct: 10× stocks of NS3/4A protease enzyme from Bioenza (Mountain View, Calif.); purchased Bioenza (Mountain View, Calif.)
Briefly: HCV Protease FRET Assay (IC50_APP), A156T mutant. The class given is biochemical. The following applies: apparent IC50, A156T mutant; read-out: IC50_APP, HCV A156T.

The target in test [4] is T3, D168A mutant of the HCV NS3/4A 1b protease enzyme (Hepatitis C virus genotype 1b, UniProt P26663, D1194A).
T3 construct: 10× stocks of NS3/4A protease enzyme from Bioenza (Mountain View, Calif.); purchased Bioenza (Mountain View, Calif.)
Briefly: HCV Protease FRET Assay (IC50_APP), D168A mutant. The class given is biochemical. The following applies: apparent IC50, D168A mutant; read-out: IC50_APP, HCV D168A.

The target of test [5] is T4, HCV NS3/4A wild type (genotype 1b) (Hepatitis C virus genotype 1b, UniProt P26663).
T4 construct: mass spectroscopic analysis of HCV NS3/4A wild-type protease domain; purchased Bioenza Calif
Nature of the test: Mass spectrometric analysis (MALDI-TOF) of covalent modification, HCV wild type. The class given is binding. As to conditions: 10-fold excess of compound to protein, 1 hr. On the procedure:
Mass spectrometric analysis of HCV wild type or HCV variant C159S in the presence of test compound was performed. 100 pmols of HCV wild type (Bioenza Calif.) was incubated with compound for 1 hr and 3 hrs at 10-fold access of […] to protein. 1 ul aliquots of the samples (total volume of 4.24 ul) were diluted with 10 ul of 0.1% TFA prior to micro C4 ZipTipping directly onto the MALDI target using Sinapinic acid as the desorption matrix (10 mg/ml in 01% TFA:Acetonitrile 50:50). Analyses were performed on a Shimadzu Biotech Axima TOF^2 (Shimadzu Instruments) matrix-assisted-laser desorption/ionization Time-of-Flight (MALDI-TOF) mass spectrometer. The same procedure was carried out on 100 pmols of HCV C159S mutant of HCV protease for 3 hrs at 10-fold excess of (I-3) to protein.
As depicted in FIGS. 2, 3, 4, and 5, mass spectrometric analysis of HCV wild type or HCV mutants in the presence of test compound (I-3) was performed. […] 1 ul aliquots of the samples were diluted with 10 ul of 0.1% TFA prior to micro C4 ZipTipping directly onto the MALDI target using Sinapinic acid as the desorption matrix (10 mg/ml in 0.1% TFA:Acetonitrile 50:50).
Mass spectrometric analysis of HCV wild type (genotype 1b) in the presence of test compounds I-73 and I-75 was performed using the following protocol: HCV NS3/4A wild type (wt) was incubated for 1 hr at a 10× fold access of test compound to protein. 2 ul aliquots of the samples were diluted with 10 ul of 0.1% TFA prior to micro C4 ZipTipping directly onto the MALDI target using Sinapinic acid as the desorption matrix (10 mg/ml in 0.1% TFA:Acetonitrile 50:50). For intact protein mass measurement the instrument was set in Linear mode using a pulsed extraction setting of 24,500 and apomyoglobin as the standard to calibrate the instrument.
Mass spectrometric analysis of HCV NS3/4A genotypes 1a, 1b, 2a, and 3a in the presence of test compound I-96 was performed using the following protocol: HCV NS3/4A was incubated for 3 hr at a 10× fold access of test compound to protein. […]

Test [6] concerns the target T5, C159S mutant of the HCV NS3/4A 1b protease enzyme (Hepatitis C virus genotype 1b, UniProt P26663, C1185S).
T5 construct: 10× stocks of NS3/4A protease enzyme from Bioenza (Mountain View, Calif.); purchased Bioenza (Mountain View, Calif.)
Nature of the test: HCV Protease FRET Assay (IC50_APP), C159S mutant. Type of test: biochemical. The following applies: apparent IC50, C159S mutant. The protocol: HCV Protease FRET Assay for WT and Mutated NS3/4A 1b Enzymes (IC50—APP).
The following protocol was used to generate “apparent” IC50 (IC50—APP) values as depicted in Table 6, below. […] 5 μL of each enzyme were added to Corning (#3575) 384-well, black, microtiter plates (Corning, N.Y.) after spotting a 0.5 μL volume of 50% DMSO and serially diluted compounds prepared in 50% DMSO. Protease reactions were immediately started after enzyme addition with the addition of 45 μL of the FRET substrate and monitored for 60-90 minutes at λex485/λem520 in a Synergy^4 plate reader from BioTek (Winooski, Vt.). At the conclusion of each assay, progress curves from each well were examined for linear reaction kinetics and fit statistics (R^2, 95% confidence intervals, absolute sum of squares).
The compound numbers correspond to the compound numbers in Table 3. […] ;

For test [7], the target named is T6, R155K mutant of the HCV NS3/4A 1b protease enzyme (Hepatitis C virus genotype 1b, UniProt P26663, R1181K).
T6 construct: 10× stocks of NS3/4A protease enzyme from Bioenza (Mountain View, Calif.); purchased Bioenza (Mountain View, Calif.)
Nature of the test: HCV Protease FRET Assay (IC50_APP), R155K mutant. Type of test: biochemical. As to conditions: apparent IC50, R155K mutant; read-out: IC50_APP, HCV R155K.

For test [8], the system named is HCV RNA replicon in cell line ET (luc-ubi-neo/ET), human Huh7 hepatoma. Briefly: Luciferase Assay (Example 35), replicon-derived luciferase activity. Type of test: cell-based. The following applies: Hepatitis C virus, Huh-7; assay described in Example 35. The protocol: The compounds were assayed to evaluate the antiviral activity and cytotoxicity of compounds using replicon-derived luciferase activity. This assay used the cell line ET (luc-ubi-neo/ET), which is a human Huh7 hepatoma cell line that contains an HCV RNA replicon with a stable luciferase (Luc) reporter and cell culture-adaptive mutations. The ET cell line was grown in a 5% CO2 incubator at 37° C. in Dulbecco's modified essential media (DMEM) supplemented with 2 mM L-glutamine, nonessential amino acids, 100 U of penicillin/ml, 100 μg of streptomycin/mL, and 10% fetal bovine serum. G418 (Geneticin; Invitrogen) was added at a final concentration of 400 ug//mL.
All cell culture reagents were obtained from Invitrogen (Carlsbad). Cells were trypsinized (1% trypsin:EDTA) and plated out at 5×10^3 cells/well in white 96-well assay plates (Costar) dedicated to cell number (cytotoxicity) or antiviral activity assessments. Test compounds were added at six 3-fold concentrations each and the assay was run in DMEM, 5% FBS, 1% pen-strep, 1% glutamine, 1% non essential amino acid. Human interferon alpha-2b (PBL Biolabs, New Brunswick, N.J.) was included in each run as a positive control compound. Cells were processed 72 hr post test compound addition when the cells were still subconfluent. Antiviral activity was measured by analyzing replicon-derived luciferase activity using the Steady-Glo Luciferase Assay System (Promega, Madison, Wis.) according to manufacturer's instruction. The number of cells in each well was determined by Cell Titer Blue Assay (Promega). Compound profile was derived by calculating applicable EC50 (effective concentration inhibiting virus replication by 50%), EC90 (effective concentration inhibiting virus replication by 90%), IC50 (concentration decreasing cell viability by 50%) and SI50 (selective index: […]) values.

Setting [9] is: read-out: IC50_APP, WT, apparent IC50, wild type NS3/4A 1b.

Turning to `C=C[C@@H]1C[C@]1(NC(=O)[C@@H]1C[C@@H](Oc2cc(-c3ccccc3)nc3cc(OC)ccc23)CN1C(=O)[C@@H](NC(=O)OC(C)(C)C)[C@@H](C)OC(=O)/C=C/C)C(=O)NS(=O)(=O)C1CC1` [Compound I-50, (E)-((2R,3S)-3-(tert-butoxycarbonylamino)-4-((2S,4R)-2-((1R,2S)-1-(cyclopropylsulfonylcarbamoyl)-2-vinylcyclopropylcarbamoyl)-4-(7-methoxy-2-phenylquinolin-4-yloxy)pyrrolidin-1-yl)-4-oxobutan-2-yl)but-2-enoate], the concentration for an effect of 90% (IC90) in test [1] (IC90) was < 0.01 µM. The IC50 in test [1] (read-out: Replicon (IC50)) is < 0.01 µM; in test [2], < 0.01 µM; in test [3], 0.1 to 1 µM; in test [4] it was 0.1 to 1 µM. Besides, the “Covalent modification of HCV wild type by mass spectrometry” value in test [5] is “measurable covalent modification”.
On to `C=CC(=O)N[C@H](CC(C)C)C(=O)N1C[C@H](Oc2nccc3cc(OC)ccc23)C[C@H]1C(=O)N[C@]1(C(=O)NS(=O)(=O)C2CC2)C[C@H]1C=C` [Compound I-105], for which the IC50 in test [2] (setting [9]) was < 0.01 µM; in test [6] it was 0.1 to 1 µM; in test [3] it was < 0.01 µM; in test [4] it was 0.1 to 1 µM; in test [7] it was 0.01 to 0.1 µM. In test [8], this molecule returned a concentration for a half-maximal effect (EC50) of 0.01 to 0.1 µM.
For the molecule `C=CC(=O)N[C@H](Cc1ccccc1)C(=O)N1C[C@H](Oc2nccc3cc(OC)ccc23)C[C@H]1C(=O)N[C@]1(C(=O)NS(=O)(=O)C2CC2)C[C@H]1C=C` [Compound I-106], the IC50 in test [2] (setting [9]) was < 0.01 µM; in test [6], 0.1 to 1 µM; in test [3] it was < 0.01 µM; in test [4], 0.1 to 1 µM; in test [7], 0.01 to 0.1 µM. In test [8], this molecule came in with an EC50 of 0.01 to 0.1 µM.
On to `C=CC1CC1(NC(=O)C1CC(n2nnc(-c3ccc(OC)cc3)n2)CN1C(=O)C(CCC(=O)C=C(C)C)NC(=O)OC(C)(C)C)C(=O)NS(=O)(=O)C1CC1` (centres unmarked) [Compound I-107], for which the IC50 is < 0.01 µM in test [2] (setting [9]), 0.01 to 0.1 µM in test [6], 1 to 10 µM in test [4] and 1 to 10 µM in test [7]. This molecule registered an EC50 in test [8] of 0.1 to 1 µM.
As to `C=CC(=O)NCC(NC(=O)OC(C)(C)C)C(=O)N1CC(n2nnc(-c3ccc(OC)cc3)n2)CC1C(=O)NC1(C(=O)NS(=O)(=O)C2CC2)CC1C=C` (centres unmarked) [Compound I-108], the IC50 is < 0.01 µM in test [2] (setting [9]), 0.1 to 1 µM in test [6], 1 to 10 µM in test [4] and 1 to 10 µM in test [7]. Also, in test [8], the concentration giving a half-maximal response (EC50) lay in the range of 0.1 to 1 µM.
As for `C=CC(=O)NC[C@H](NC(=O)OC(C)(C)C)C(=O)N1C[C@H](Oc2nc3ccccc3nc2-c2cccs2)C[C@H]1C(=O)N[C@]1(C(=O)NS(=O)(=O)C2CC2)C[C@H]1C=C` [Compound I-109], the IC50 in test [2] (setting [9]) is < 0.01 µM; in test [6] it was 0.1 to 1 µM; in test [4], 1 to 10 µM; in test [7] it was 0.1 to 1 µM. Moreover, the half-maximal effective concentration (EC50) in test [8] was in the range of 0.1 to 1 µM.
In the case of `C=C[C@@H]1C[C@]1(NC(=O)[C@@H]1C[C@@H](Oc2nc3ccccc3nc2-c2cccs2)CN1C(=O)[C@H](CCC(=O)C=C(C)C)NC(=O)OC(C)(C)C)C(=O)NS(=O)(=O)C1CC1` [Compound I-110], the IC50 in test [2] (setting [9]) was < 0.01 µM; in test [6], 0.01 to 0.1 µM; in test [4], 1 to 10 µM; in test [7] it was 0.1 to 1 µM. The EC50 in test [8] lay within 0.01 to 0.1 µM.
